From patent US12077503B2, “Substituted cyclic amides and their use as herbicides” (FMC CORPORATION, priority 2015, dated 2024)

Experiments:
Format in all cases: in vivo
[1] = tested on: wheat (Triticum aestivum); assay: Test A postemergence; settings: Triticum aestivum, post-emergence, 240 h, postemergence
In short: (§1)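 Greenhouse, ~10 d after spray; visual injury vs untreated controls, 0 = no effect, 100 = complete control. Preemergence: directed soil spray over planted seeds. Postemergence: plants 2–10 cm, 1–2 leaf stage. Loam/sand blend. Compound in non-phytotoxic solvent with surfactant.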

Kochia (Kochia scoparia) [2] = assay: Test A postemergence; settings: Bassia scoparia, post-emergence, 240 h, postemergence
In short: as §1

[3] = tested on: pigweed (Amaranthus retroflexus); assay: Test A postemergence; settings: Amaranthus retroflexus, post-emergence, 240 h, postemergence
In short: as §1

[4] = tested on: Galium (catchweed bedstraw, Galium aparine); assay: Test A postemergence; settings: Galium, post-emergence, 240 h, postemergence
In short: as §1

corn (Zea mays) = assay: Test A postemergence; settings: Zea mays, post-emergence, 240 h, postemergence
In short: as §1

[5] = tested on: giant foxtail (Setaria faberii); assay: Test A postemergence; settings: Setaria faberi, post-emergence, 240 h, postemergence
In short: as §1

[6] = tested on: ragweed (common ragweed, Ambrosia elatior); assay: Test A postemergence; settings: Ambrosia artemisiifolia, post-emergence, 240 h, postemergence
In short: as §1

[7] = tested on: ryegrass, Italian (Italian ryegrass, Lolium multiflorum); assay: Test A postemergence; settings: Lolium multiflorum, post-emergence, 240 h, postemergence
In short: as §1

[8] = tested on: barnyardgrass (Echinochloa crus-galli); assay: Test A postemergence; settings: Echinochloa crus-galli, post-emergence, 240 h, postemergence
In short: as §1

Kochia (Kochia scoparia) [9] = assay: Test A preemergence; settings: Bassia scoparia, pre-emergence, 240 h, preemergence, 0 to 100 scale where 0 is no effect and 100 is complete control, read-out: Kochia plant response rating
In short: as §1

[10] = tested on: pigweed (Amaranthus retroflexus); assay: Test A preemergence; settings: Amaranthus retroflexus, pre-emergence, 240 h, preemergence, 0 to 100 scale where 0 is no effect and 100 is complete control, read-out: Pigweed plant response rating
[11] = tested on: giant foxtail (Setaria faberii); assay: Test A preemergence; settings: Setaria faberi, pre-emergence, 240 h, preemergence, 0 to 100 scale where 0 is no effect and 100 is complete control, read-out: Foxtail, Giant plant response rating
In short: as §1

[12] = tested on: ragweed (common ragweed, Ambrosia elatior); assay: Test A preemergence; settings: Ambrosia artemisiifolia, pre-emergence, 240 h, preemergence, 0 to 100 scale where 0 is no effect and 100 is complete control, read-out: Ragweed plant response rating
In short: as §1

[13] = tested on: ryegrass, Italian (Italian ryegrass, Lolium multiflorum); assay: Test A preemergence; settings: Lolium multiflorum, pre-emergence, 240 h, preemergence, 0 to 100 scale where 0 is no effect and 100 is complete control, read-out: Ryegrass, Italian plant response rating
In short: as §1

[14] = tested on: barnyardgrass (Echinochloa crus-galli); assay: Test A preemergence; settings: Echinochloa crus-galli, pre-emergence, 240 h, preemergence, 0 to 100 scale where 0 is no effect and 100 is complete control, read-out: Barnyardgrass plant response rating
In short: as §1

[15] = 125 g ai/ha, visual injury rating, approximately 10 d

## COc1cc(C(F)(F)F)ccc1[C@H]1CN(C)C(=O)[C@@H]1C(=O)Nc1cccc(F)c1C [Compound 1205]
[1]; 125 g ai/ha, visual injury vs untreated controls after approx. 10 d, 0 = no effect, 100 = complete control, read-out: Wheat plant response rating (0 to 100 scale)
  plant injury at 125 g/ha: 30%
[1]; 500 g ai/ha, 0 to 100 scale, 0 is no effect, 100 is complete control, read-out: Wheat plant response rating
  plant injury at 500 g/ha: 40%
Kochia (Kochia scoparia) [2]; 125 g ai/ha, visual injury vs untreated controls after approx. 10 d, 0 = no effect, 100 = complete control, read-out: Kochia plant response rating (0 to 100 scale)
  pest or weed control at 125 g/ha: 0%
Kochia (Kochia scoparia) [2]; 500 g ai/ha, 0 to 100 scale, 0 is no effect, 100 is complete control, read-out: Kochia plant response rating
  pest or weed control at 500 g/ha: 0%
[3]; 125 g ai/ha, visual injury vs untreated controls after approx. 10 d, 0 = no effect, 100 = complete control, read-out: Pigweed plant response rating (0 to 100 scale)
  pest or weed control at 125 g/ha: 0%
[3]; 500 g ai/ha, 0 to 100 scale, 0 is no effect, 100 is complete control, read-out: Pigweed plant response rating
  pest or weed control at 500 g/ha: 0%
[4]; 125 g ai/ha, visual injury vs untreated controls after approx. 10 d, 0 = no effect, 100 = complete control, read-out: Galium plant response rating (0 to 100 scale)
  pest or weed control at 125 g/ha: 20%
[4]; 500 g ai/ha, 0 to 100 scale, 0 is no effect, 100 is complete control, read-out: Galium plant response rating
  pest or weed control at 500 g/ha: 40%
Corn (Zea mays); 125 g ai/ha, visual injury vs untreated controls after approx. 10 d, 0 = no effect, 100 = complete control, read-out: Corn plant response rating (0 to 100 scale)
  plant injury at 125 g/ha: 70%
Corn (Zea mays); 500 g ai/ha, 0 to 100 scale, 0 is no effect, 100 is complete control, read-out: Corn plant response rating
  plant injury at 500 g/ha: 80%
[5]; 125 g ai/ha, visual injury vs untreated controls after approx. 10 d, 0 = no effect, 100 = complete control, read-out: Foxtail, Giant plant response rating (0 to 100 scale)
  pest or weed control at 125 g/ha: 80%
[5]; 500 g ai/ha, 0 to 100 scale, 0 is no effect, 100 is complete control, read-out: Foxtail, Giant plant response rating
  pest or weed control at 500 g/ha: 80%
[6]; 125 g ai/ha, visual injury vs untreated controls after approx. 10 d, 0 = no effect, 100 = complete control, read-out: Ragweed plant response rating (0 to 100 scale)
  pest or weed control at 125 g/ha: 0%
[6]; 500 g ai/ha, 0 to 100 scale, 0 is no effect, 100 is complete control, read-out: Ragweed plant response rating
  pest or weed control at 500 g/ha: 0%
[7]; 125 g ai/ha, visual injury vs untreated controls after approx. 10 d, 0 = no effect, 100 = complete control, read-out: Ryegrass, Italian plant response rating (0 to 100 scale)
  pest or weed control at 125 g/ha: 0%
[7]; 500 g ai/ha, 0 to 100 scale, 0 is no effect, 100 is complete control, read-out: Ryegrass, Italian plant response rating
  pest or weed control at 500 g/ha: 30%
[8]; 125 g ai/ha, visual injury vs untreated controls after approx. 10 d, 0 = no effect, 100 = complete control, read-out: Barnyardgrass plant response rating (0 to 100 scale)
  pest or weed control at 125 g/ha: 40%
[8]; 500 g ai/ha, 0 to 100 scale, 0 is no effect, 100 is complete control, read-out: Barnyardgrass plant response rating
  pest or weed control at 500 g/ha: 50%
Kochia (Kochia scoparia) [9]; [15]
  pest or weed control at 125 g/ha: 30%
Kochia (Kochia scoparia) [9]; 500 g ai/ha
  pest or weed control at 500 g/ha: 30%
[10]; [15]
  pest or weed control at 125 g/ha: 0%
[10]; 500 g ai/ha
  pest or weed control at 500 g/ha: 30%
[11]; [15]
  pest or weed control at 125 g/ha: 100%
[11]; 500 g ai/ha
  pest or weed control at 500 g/ha: 100%
[12]; [15]
  pest or weed control at 125 g/ha: 0%
[12]; 500 g ai/ha
  pest or weed control at 500 g/ha: 0%
[13]; [15]
  pest or weed control at 125 g/ha: 40%
[13]; 500 g ai/ha
  pest or weed control at 500 g/ha: 70%
[14]; [15]
  pest or weed control at 125 g/ha: 90%
[14]; 500 g ai/ha
  pest or weed control at 500 g/ha: 90%
